The source made the active and inactive calls. For most assays here, no stated cut-off is given here; in the data, actives have a measured IC50 and inactives only a lower limit.
Legend:
Assay type in all cases: functional
Protein RecA = target: T1, Protein RecA (Mycobacterium tuberculosis, UniProt P9WHJ3); experiment: Fluorescence Cell-Free Homogeneous Dose Retest to Identify Inhibitors of RecA-Intein Splicing Activity. [Related pubchem assays (depositor defined):AID2097, AID2223, AID489010, AID492950]
T1 sequence (P9WHJ3 whole entry): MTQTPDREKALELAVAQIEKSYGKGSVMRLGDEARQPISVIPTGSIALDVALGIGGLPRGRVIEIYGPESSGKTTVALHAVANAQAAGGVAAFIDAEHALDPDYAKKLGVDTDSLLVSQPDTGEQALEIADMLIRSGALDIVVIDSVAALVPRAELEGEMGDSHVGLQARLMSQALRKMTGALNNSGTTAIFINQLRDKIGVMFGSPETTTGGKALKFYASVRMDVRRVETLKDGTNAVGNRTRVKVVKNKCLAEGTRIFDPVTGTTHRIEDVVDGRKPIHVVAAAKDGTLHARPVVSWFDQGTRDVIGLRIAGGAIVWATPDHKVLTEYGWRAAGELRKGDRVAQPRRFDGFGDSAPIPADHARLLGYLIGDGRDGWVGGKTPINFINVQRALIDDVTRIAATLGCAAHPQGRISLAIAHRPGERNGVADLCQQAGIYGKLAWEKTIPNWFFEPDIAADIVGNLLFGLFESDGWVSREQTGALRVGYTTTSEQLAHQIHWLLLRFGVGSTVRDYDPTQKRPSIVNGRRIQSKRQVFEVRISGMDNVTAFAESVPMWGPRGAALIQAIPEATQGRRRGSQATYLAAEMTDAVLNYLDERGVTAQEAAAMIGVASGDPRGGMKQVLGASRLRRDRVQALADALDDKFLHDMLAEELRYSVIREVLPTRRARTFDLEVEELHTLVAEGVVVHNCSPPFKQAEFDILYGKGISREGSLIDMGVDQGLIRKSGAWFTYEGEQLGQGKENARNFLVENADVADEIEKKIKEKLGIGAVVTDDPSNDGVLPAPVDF

[1] = target: T2, Sentrin-specific protease 7 (Homo sapiens, UniProt Q9BQF6);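 further: Luminescence-based dose-response confirmation of ultra-high-throughput screening hits, measuring inhibition of SENP7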
T2 sequence (Q9BQF6 whole entry): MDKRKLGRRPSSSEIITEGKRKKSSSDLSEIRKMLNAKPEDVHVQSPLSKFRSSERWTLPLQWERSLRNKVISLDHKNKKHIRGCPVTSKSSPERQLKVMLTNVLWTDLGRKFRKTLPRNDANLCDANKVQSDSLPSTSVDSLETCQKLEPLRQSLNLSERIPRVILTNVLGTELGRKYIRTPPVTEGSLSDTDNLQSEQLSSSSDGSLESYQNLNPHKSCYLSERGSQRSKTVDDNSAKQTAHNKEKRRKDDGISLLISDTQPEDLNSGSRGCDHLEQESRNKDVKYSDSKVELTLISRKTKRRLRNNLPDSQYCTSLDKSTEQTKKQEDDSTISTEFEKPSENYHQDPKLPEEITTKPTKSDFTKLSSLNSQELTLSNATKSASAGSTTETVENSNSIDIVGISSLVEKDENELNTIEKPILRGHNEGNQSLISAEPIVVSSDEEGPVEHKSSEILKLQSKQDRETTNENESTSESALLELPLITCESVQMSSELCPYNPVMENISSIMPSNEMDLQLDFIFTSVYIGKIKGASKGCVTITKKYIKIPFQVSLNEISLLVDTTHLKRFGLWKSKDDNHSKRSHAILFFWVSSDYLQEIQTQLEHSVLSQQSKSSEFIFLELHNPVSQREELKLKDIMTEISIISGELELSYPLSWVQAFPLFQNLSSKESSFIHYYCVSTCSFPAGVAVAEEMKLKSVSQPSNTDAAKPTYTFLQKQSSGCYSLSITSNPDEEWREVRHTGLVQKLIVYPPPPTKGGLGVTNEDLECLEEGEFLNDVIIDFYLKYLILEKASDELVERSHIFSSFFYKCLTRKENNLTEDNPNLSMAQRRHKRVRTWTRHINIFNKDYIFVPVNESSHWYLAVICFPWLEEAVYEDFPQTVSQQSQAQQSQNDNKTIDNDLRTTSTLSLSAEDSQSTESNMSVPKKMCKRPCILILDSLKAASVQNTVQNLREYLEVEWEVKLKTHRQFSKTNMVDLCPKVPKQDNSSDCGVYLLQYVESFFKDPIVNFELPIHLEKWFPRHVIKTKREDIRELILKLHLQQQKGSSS

[2] = target: T3, Sentrin-specific protease 6 (Homo sapiens, UniProt Q9GZR1);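 further: Luminescence-based dose-response confirmatory assay of SENP6 inhibition, following up an ultra-high-throughput screen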
T3 sequence (Q9GZR1 whole entry): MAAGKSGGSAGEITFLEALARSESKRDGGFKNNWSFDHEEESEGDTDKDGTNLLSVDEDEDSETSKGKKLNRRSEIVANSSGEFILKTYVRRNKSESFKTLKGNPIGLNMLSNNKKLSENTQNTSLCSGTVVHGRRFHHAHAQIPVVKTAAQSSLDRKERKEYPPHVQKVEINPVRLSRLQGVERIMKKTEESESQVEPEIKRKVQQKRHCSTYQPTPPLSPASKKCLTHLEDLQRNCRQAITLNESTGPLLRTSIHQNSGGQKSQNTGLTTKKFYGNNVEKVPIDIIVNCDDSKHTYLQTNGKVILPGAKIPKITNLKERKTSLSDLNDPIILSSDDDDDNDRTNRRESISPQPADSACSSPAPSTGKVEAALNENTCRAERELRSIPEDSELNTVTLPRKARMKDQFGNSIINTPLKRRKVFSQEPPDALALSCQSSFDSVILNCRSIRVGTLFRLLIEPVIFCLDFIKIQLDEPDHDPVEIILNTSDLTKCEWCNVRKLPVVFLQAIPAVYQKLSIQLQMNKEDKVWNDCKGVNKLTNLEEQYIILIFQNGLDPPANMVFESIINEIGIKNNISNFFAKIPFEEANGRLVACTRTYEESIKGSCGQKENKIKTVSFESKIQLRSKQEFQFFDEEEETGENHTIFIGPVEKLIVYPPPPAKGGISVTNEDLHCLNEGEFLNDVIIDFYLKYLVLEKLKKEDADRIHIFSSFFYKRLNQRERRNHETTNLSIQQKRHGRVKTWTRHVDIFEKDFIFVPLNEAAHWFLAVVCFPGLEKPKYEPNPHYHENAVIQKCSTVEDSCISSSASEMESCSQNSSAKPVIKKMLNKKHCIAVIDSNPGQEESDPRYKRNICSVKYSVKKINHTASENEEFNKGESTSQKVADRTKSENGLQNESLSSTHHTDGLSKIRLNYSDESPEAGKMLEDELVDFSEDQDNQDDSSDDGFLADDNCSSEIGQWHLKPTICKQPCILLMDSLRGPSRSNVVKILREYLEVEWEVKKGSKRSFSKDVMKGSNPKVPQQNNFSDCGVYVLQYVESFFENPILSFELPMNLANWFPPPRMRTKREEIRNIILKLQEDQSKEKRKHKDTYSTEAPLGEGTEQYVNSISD

## COC(=O)c1cccc(-c2ccc(C(c3c(C)n[nH]c3O)c3c(C)n[nH]c3O)o2)c1
Protein RecA
  EC50: 175 nM (active)

## Cc1cc(/C=C2\SC(=S)N(C)C2=O)c(C)n1-c1ccc(O)cc1
[1]
  IC50: 5.42 µM (active)
[2]
  IC50: 4.66 µM (active)

## Cc1ccc(C(=O)NNc2cc(N3CCCC3)nc(N3CCCC3)n2)cc1
[1]
  IC50: 1.74 µM (active)
[2]
  IC50: 0.838 µM (active)

## O=C1/C(=N\c2cccc(O)c2)C(N2CCCCC2)=C(O)c2ccccc21
Protein RecA
  EC50: 364 nM (active)

From ChEMBL document CHEMBL1201862, “PubChem BioAssay data set” (2004)
